# From patent US8309144B2, “Use of a cruciferous protein hydrolysate as a depigmentation agent or for a cosmetic and/or pharmaceutical composition” (ISP Investments Inc., priority 2004, dated 2012)
# Test system: melanin in the epidermis of ex vivo skin
# Assay: Whitening effect on ex vivo skin, Fontana-Masson staining with image analysis of luminosity histograms (Example 5)
# Assay type: cell-based, human
# Protocol: Comparative studies were conducted using 1% of a non fermented rapeseed peptide hydrolysate for 72 hours, or 1% arbutin, known for its whitening effect, or a combination of both on ex vivo skin.
# Skin biopsies are prepared as described in example 2. Four different conditions are tested: • Condition 1: control, no active ingredient is applied • Condition 2: Arbutin 1% is applied twice a day over a period of 72 hours • Condition 3: non fermented rapeseed extract is applied twice a day over a period of 72 hours • Condition 4: a combination of 1% of a non fermented rapeseed extract and 0.5% arbutin is applied twice a day over a period of 72 hours
# A quantitative evaluation of the presence of melanin in the epidermis of the skin samples is carried out histologically, under an optical microscope, using the Fontana-Masson staining method as described in example 2.
# To confirm visual observations and quantify the results, image analysis was performed using several image processing steps and analysis of luminosity histograms.
# All date were normalized to the length of the basal layer within a given histological section.
structure (smiles),measurement,setting,value
OC[C@H]1O[C@@H](Oc2ccc(O)cc2)[C@H](O)[C@@H](O)[C@@H]1O [arbutin],decrease in melanin content (normalized integrated values of histograms),"ex vivo skin, 1%, 72 hours",32%
same,"melanin content, visual observation (in words)","ex vivo skin, 1%, 72 hours",significant decrease in melanin content
same,% of decrease (melanin content vs control),"ex vivo skin, applied twice a day over 72 hours, 1% (combination 1%/0.5%)",−31.8%
same,Area under curve (luminosity histogram),"ex vivo skin, applied twice a day over 72 hours, 1% (combination 1%/0.5%), control 54517",46247
same,Area/length,"normalized to length of basal layer, applied twice a day over 72 hours, control 66.78",45.53 l/micron
